Results reported in publication PMC11259170, “Small-molecule probe for IBD risk variant GPR65 I231L alters cytokine signaling networks through positive allosteric modulation” (Science Advances, 2024).

System: GPR65 WT BMDCs
Assay: RNA sequencing of BMDCs, GPR65 WT
Assay type: cell-based, mouse
Experimental: BMDCs were differentiated from bone marrow from in Dulbecco’s modified Eagle’s medium (DMEM) [10% heat-inactivated fetal bovine serum (FBS), 1X GlutaMAX, 1% penicillin-streptomycin] containing recombinant murine granulocyte-macrophage colony-stimulating factor (rmGM-CSF) (20 ng/ml; Peprotech, 315-03) for 7 days, supplemented with additional DMEM + rmGM-CSF on day 3. Cells were then scraped and seeded at 1 × 10^5 cells per well in a 96-well microplate and allowed to adhere overnight.
Different media were prepared on the basis of target pH. pH 6.6: DMEM [10% FBS, 1% penicillin/streptomycin (p/s), 20 mM BES (MilliporeSigma, B4554), 1X Glutamax (Gibco, 35050061), 3.75 mM sodium bicarbonate, and 41.25 mM NaCl]. pH 7.2: DMEM (10% FBS, 1% p/s, 20 mM BES, 1X Glutamax, 7.5 mM sodium bicarbonate, and 36.5 mM NaCl). pH 7.6: DMEM 10% FBS, 1% p/s, 20 mM BES, 1X Glutamax, and 44 mM sodium bicarbonate. Media was allowed to equilibrate overnight at 37°C, 5% CO2 in a vented conical tube, and then adjusted to desired pH immediately before the stimulation using 1 M NaOH.
BMDCs were stimulated with different compounds and pH conditions while simultaneously challenged with zymosan (5 μg/ml; Invivogen, tlrl-zyn) for 2 hours. The treatment conditions were as follows: (i) pH 7.2 + DMSO, (ii) pH 7.2 + 20 μM BRD5075, (iii) pH 7.6 + DMSO, and (iv) pH 7.6 + 5 μM PGE2 (Tocris, 2296). Cells were lysed with a lysis/binding buffer (Invitrogen, A33562).
Libraries were prepared using a modified SmartSeq2 protocol. RNA lysates were purified with Dynabeads mRNA Direct Purification kit (Life Technologies, 61011), followed by reverse transcription with Maxima Reverse Transcriptase (Thermo Fisher Scientific, EP0742) and whole transcription amplification (WTA) with KAPA HotStart HiFi 2x ReadyMix (Kapa Biosystems, KK2601). WTA products were purified with Ampure XP beads (Beckman Coulter, A63880). RNA sequencing libraries were constructed using Nextera XT DNA Library Preparation kit (Illumina, FC-131-1096). Samples were purified with Ampure XP, pooled in equal quantities, then run on 2% E-gel EX (Invitrogen, G402022). Extracted library from ~250 to 800 bps with gel extraction kit (Zymo Research, D4008). The libraries were sequenced on an Illumina NextSeq 500 instrument with NextSeq 500/550 High Output v2 kit (Illumina, 20024906) and the following parameters: paired End: Index1 8, Index2 8, Read1 38, Read 2 38.
BCL files were converted to fastq using Bcl2Fastq. Fastq reads were aligned to the mouse reference genome mm10 using the STAR aligner ([55]), and counts assigned to genes using the RSEM package ([56]). The R/Bioconductor package DESeq2 ([57]) was used to identify differentially expressed (DE) genes. The data were not normalized or pre-processed in any way, as DESeq2 expects raw un-normalized counts as input. Genes with a Benjamini and Hochberg–corrected P value < 0.1 were considered statistically significant.

[1] = WT BMDCs, BRD5075 vs DMSO, pH 7.2

Cc1ccc(NC(=O)c2cnn3c(O)cc(-c4ccc(COC(C)C)cc4)nc23)nc1 [BRD5075, O=C(NC1=NC=C(C)C=C1)C2=C3N(N=C2)C(O)=CC(C4=CC=C(COC(C)C)C=C4)=N3]
Fos expression (20 μM vs DMSO, pH 7.2): up-regulated | Socs3 and Cish expression (20 μM vs DMSO, pH 7.2): down-regulated | Tnfrsf9, Tnfrsf26 and Tnfaip8 expression (20 μM vs DMSO, pH 7.2): down-regulated | expression of inflammatory cytokine (Il12b, Il1b, Tnf) and chemokine (Ccl7, Ccl2, Ccl22, Cxcl1, Cxcl2, Cxcl3) genes (20 μM vs DMSO, pH 7.2): down-regulated | Mt1 and Mt2 expression (20 μM vs DMSO, pH 7.2, zymosan, 2 hours): up-regulated | log2FoldChange Acod1 [1]: -0.8043 | log2FoldChange Ahnak [1]: -0.3498 | log2FoldChange Bcl2a1a [1]: -0.4699 | log2FoldChange Bcl2a1b [1]: -0.2827 | log2FoldChange Bcl2a1d [1]: -0.38 | log2FoldChange Btg1 [1]: -0.3947 | log2FoldChange Cacnb3 [1]: -0.5998 | log2FoldChange Cap1 [1]: -0.3862 | log2FoldChange Car2 [1]: -0.6566 | log2FoldChange Ccl2 [1]: -0.6388 | log2FoldChange Ccl5 [1]: -0.8152 | log2FoldChange Ccl7 [1]: -1.049 | log2FoldChange Ccl22 [1]: -0.5298 | log2FoldChange Ccr7 [1]: -0.5607 | log2FoldChange Ccrl2 [1]: -0.6903 | log2FoldChange Cd14 [1]: -0.4004 | log2FoldChange Cd86 [1]: -0.6053 | log2FoldChange Cdc37 [1]: -0.5925 | log2FoldChange Cdc42ep2 [1]: -0.4809 | log2FoldChange Cebpb [1]: -0.9437 | log2FoldChange Cflar [1]: -0.6547 | log2FoldChange Cish [1]: -0.8764 | log2FoldChange Clec4e [1]: -0.6037 | log2FoldChange Coro1a [1]: -0.3668 | log2FoldChange Cxcl1 [1]: -0.8744 | log2FoldChange Cxcl2 [1]: -0.4995 | log2FoldChange Cxcl3 [1]: -0.5082 | log2FoldChange Cytip [1]: -0.4125 | log2FoldChange Ddx5 [1]: -0.3311 | log2FoldChange Ehd1 [1]: -0.3665 | log2FoldChange Eif1a [1]: -0.4662 | log2FoldChange Fam177a [1]: -0.5633 | log2FoldChange Flrt3 [1]: -0.6822 | log2FoldChange Fos [1]: 0.7626 | log2FoldChange Fscn1 [1]: -1.127 | log2FoldChange Gem [1]: -0.7493 | log2FoldChange Ghitm [1]: -0.3657 | log2FoldChange Gpr84 [1]: -0.6049 | log2FoldChange H2-Ab1 [1]: -0.3044 | log2FoldChange H2-D1 [1]: -0.3663 | log2FoldChange H2-K1 [1]: -0.4443 | log2FoldChange H2-Q4 [1]: -0.9033 | log2FoldChange H2-Q6 [1]: -0.6888 | log2FoldChange H2-Q7 [1]: -0.7384 | log2FoldChange Hivep3 [1]: -0.8888 | log2FoldChange Hnrnpab [1]: -0.4744 | log2FoldChange Ier3 [1]: -0.643 | log2FoldChange Ifitm1 [1]: -0.5428 | log2FoldChange Ifitm3 [1]: -0.5054 | log2FoldChange Il1b [1]: -1.038 | log2FoldChange Il1rn [1]: -0.3871 | log2FoldChange Il12b [1]: -0.7451 | log2FoldChange Inhba [1]: -0.8833 | log2FoldChange Irf8 [1]: -0.5092 | log2FoldChange Lrrc58 [1]: -0.5089 | log2FoldChange Malt1 [1]: -0.6085 | log2FoldChange Marcksl1 [1]: -0.8077 | log2FoldChange Myo9b [1]: -0.609 | log2FoldChange Nfe2l2 [1]: -0.3368 | log2FoldChange Nfkb2 [1]: -0.6827 | log2FoldChange Nfkbia [1]: -0.3317 | log2FoldChange Nfkbid [1]: -0.8151 | log2FoldChange Nfkbie [1]: -0.5542 | log2FoldChange Pde4b [1]: -0.698 | log2FoldChange Plau [1]: -0.5236 | log2FoldChange Plek [1]: -0.4983 | log2FoldChange Ptafr [1]: -0.4512 | log2FoldChange Ptgs2 [1]: -0.6129 | log2FoldChange Ptpn6 [1]: -0.3496 | log2FoldChange Rasgef1b [1]: -0.4887 | log2FoldChange Rgs1 [1]: -0.3869 | log2FoldChange Rps28 [1]: 0.3044 | log2FoldChange Rsad2 [1]: -0.6161 | log2FoldChange S100a8 [1]: -0.9378 | log2FoldChange S100a9 [1]: -1.055 | log2FoldChange Samsn1 [1]: -0.5214 | log2FoldChange Sat1 [1]: -0.2878 | log2FoldChange Sel1l [1]: -0.4914 | log2FoldChange Sh3bgrl [1]: -0.3277 | log2FoldChange Slc3a2 [1]: -0.6173 | log2FoldChange Slc7a11 [1]: -0.4778 | log2FoldChange Slfn2 [1]: -0.3087 | log2FoldChange Socs3 [1]: -0.448 | log2FoldChange Sqstm1 [1]: -0.4417 | log2FoldChange Srgn [1]: -0.3315 | log2FoldChange Stub1 [1]: -0.4634 | log2FoldChange Syngr2 [1]: -0.3646 | log2FoldChange Tfec [1]: -0.8287 | log2FoldChange Tlr2 [1]: -0.455 | log2FoldChange Tmem123 [1]: -0.5279 | log2FoldChange Tmsb10 [1]: 0.5333 | log2FoldChange Tnf [1]: -0.4212 | log2FoldChange Tnfaip8 [1]: -0.4539 | log2FoldChange Tnfrsf9 [1]: -0.6055 | log2FoldChange Tnfrsf26 [1]: -0.4775 | log2FoldChange Tnip3 [1]: -0.5262 | log2FoldChange Ybx1 [1]: -0.4889 | log2FoldChange mt-Atp8 [1]: 0.4788
